In patent US11319343B2, “Method of treatment” (ROYAL MELBOURNE INSTITUTE OF TECHNOLOGY, priority 2017, dated 2022):
Residues, ends and D or L forms follow the SMILES beside them. No end group written: not given here.

How the values were obtained:
TLR7 [1] = molecular target: T1, TLR7 (Mus musculus, UniProt P58681); test: TLR7 agonist response (cytokine expression) in bone marrow derived macrophages with C98i peptides; type: cell-based; settings: for inhibition of TLR7 agonist, imiquimod, response in vitro (IL-6 mRNA expression): peptides 100 μM + 10 μg/ml imiquimod, no TAT
T1 construct: endogenous in cells; host or cells: immortalized bone marrow-derived macrophages (BMDMs) or RAW264.7 cells
T1 sequence (P58681 27-1050): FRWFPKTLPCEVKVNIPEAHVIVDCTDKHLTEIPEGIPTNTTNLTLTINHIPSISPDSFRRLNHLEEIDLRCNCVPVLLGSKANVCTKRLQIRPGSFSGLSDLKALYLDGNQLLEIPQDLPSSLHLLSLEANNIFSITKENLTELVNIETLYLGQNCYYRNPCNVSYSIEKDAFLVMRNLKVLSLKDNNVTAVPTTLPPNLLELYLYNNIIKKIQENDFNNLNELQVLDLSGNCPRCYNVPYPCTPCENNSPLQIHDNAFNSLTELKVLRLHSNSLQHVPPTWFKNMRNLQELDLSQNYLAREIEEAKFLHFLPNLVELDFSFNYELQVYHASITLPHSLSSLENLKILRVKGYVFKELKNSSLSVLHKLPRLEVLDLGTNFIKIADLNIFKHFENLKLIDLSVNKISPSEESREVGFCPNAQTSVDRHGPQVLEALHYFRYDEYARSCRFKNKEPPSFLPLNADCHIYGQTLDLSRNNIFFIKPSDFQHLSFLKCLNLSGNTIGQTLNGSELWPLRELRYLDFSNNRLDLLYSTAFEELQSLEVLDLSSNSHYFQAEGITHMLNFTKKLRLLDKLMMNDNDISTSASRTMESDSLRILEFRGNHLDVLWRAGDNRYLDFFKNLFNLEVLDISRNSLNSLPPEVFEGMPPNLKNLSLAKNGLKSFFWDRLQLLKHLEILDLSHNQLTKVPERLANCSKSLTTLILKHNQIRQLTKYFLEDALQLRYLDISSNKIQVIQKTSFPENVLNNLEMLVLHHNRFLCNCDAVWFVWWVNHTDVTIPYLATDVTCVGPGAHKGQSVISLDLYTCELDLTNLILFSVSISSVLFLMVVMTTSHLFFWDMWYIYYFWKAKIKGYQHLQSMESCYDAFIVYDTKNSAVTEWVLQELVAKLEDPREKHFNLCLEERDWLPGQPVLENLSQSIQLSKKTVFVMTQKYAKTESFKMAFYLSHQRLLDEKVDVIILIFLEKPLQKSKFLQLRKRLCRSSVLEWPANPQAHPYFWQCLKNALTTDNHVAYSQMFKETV

HKx31 influenza A virus = settings: mouse, in vivo
xanthine oxidase = molecular target: T2, xanthine oxidase (Bos taurus, UniProt P80457); test: Xanthine/xanthine oxidase cell-free superoxide assay (ROS scavenging); type: biochemical; settings: 1 μM
T2 construct: purchased Sigma X1875
T2 sequence (P80457 whole entry): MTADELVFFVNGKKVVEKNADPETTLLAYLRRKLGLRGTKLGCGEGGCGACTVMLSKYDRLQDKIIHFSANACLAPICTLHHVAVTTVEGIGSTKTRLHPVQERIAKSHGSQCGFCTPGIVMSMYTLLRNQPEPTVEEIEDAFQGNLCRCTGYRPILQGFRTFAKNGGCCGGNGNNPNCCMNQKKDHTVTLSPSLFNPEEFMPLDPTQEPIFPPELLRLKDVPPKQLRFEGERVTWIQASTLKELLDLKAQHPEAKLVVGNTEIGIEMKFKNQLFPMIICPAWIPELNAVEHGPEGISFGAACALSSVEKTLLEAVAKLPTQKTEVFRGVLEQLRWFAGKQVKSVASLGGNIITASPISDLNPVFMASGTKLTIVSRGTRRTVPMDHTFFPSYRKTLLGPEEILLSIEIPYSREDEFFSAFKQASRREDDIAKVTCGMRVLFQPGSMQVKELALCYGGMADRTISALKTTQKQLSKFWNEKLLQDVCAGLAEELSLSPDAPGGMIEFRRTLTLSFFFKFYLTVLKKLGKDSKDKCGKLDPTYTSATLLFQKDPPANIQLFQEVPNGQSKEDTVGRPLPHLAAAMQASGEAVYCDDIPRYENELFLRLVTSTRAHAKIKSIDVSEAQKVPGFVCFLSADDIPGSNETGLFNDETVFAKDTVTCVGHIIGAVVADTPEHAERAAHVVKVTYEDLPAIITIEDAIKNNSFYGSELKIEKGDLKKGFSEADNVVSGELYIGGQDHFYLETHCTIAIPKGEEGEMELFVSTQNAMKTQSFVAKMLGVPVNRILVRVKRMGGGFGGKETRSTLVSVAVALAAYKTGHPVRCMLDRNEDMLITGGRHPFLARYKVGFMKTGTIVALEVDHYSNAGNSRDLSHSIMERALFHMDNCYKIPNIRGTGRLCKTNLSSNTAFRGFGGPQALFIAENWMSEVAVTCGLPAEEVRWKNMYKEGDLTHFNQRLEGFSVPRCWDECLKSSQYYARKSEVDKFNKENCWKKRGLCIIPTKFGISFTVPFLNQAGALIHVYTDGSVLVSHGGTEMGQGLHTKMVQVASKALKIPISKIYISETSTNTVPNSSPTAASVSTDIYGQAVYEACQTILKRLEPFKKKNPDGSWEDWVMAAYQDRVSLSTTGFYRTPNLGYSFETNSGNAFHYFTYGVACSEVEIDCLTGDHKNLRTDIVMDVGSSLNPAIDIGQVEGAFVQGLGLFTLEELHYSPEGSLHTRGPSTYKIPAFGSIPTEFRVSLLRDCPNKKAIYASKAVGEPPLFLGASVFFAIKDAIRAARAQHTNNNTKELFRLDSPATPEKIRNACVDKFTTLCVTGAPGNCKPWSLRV
Method: Briefly, Krebs-HEPES buffer containing L-O12 (100 μM) was added into a 96-well Optiview plate. Following this, 0.1% w/v DMSO, unconjugated gp91dstat (Ugp91ds-TAT, 1 μM) or cholestanol-conjugated gp91ds-TAT (1 μM) were added in combination with Xanthine (100 μM). Immediately after xanthine oxidase (0.03 U/mL) was added, photon emission [relative light units (RLU)/s] was detected using the Chameleon (Trademark) luminescence detector (Hidex, model 425105, Finland) and recorded from each well for 1 s over 60 cycles. Individual data points for each group were derived from the average values of the three replicates minus the respective blank controls. Data are represented as raw values.

[2] = system: mouse primary alveolar macrophages; type: cell-based
[3] = Cell viability after C98i peptides; type: cell-based
NOX2 oxidase = NOX2 oxidase assembly (NOX2-p47phox association), confocal fluorescence microscopy; settings: pre-treatment: Dynasore 100 μM, bafilomycin A 100 nM, PD98059 30 μM
TLR7 responses = type: in vivo; settings: imiquimod 50 μg/mouse intranasally, 24 h
[4] = system: human alveolar macrophages; type: cell-based; settings: imiquimod 10 μg/mL, AMs from human
TLR7 [5] = molecular target: T1, TLR7; type: cell-based; settings: for IFN-β, IL-1β, TNF-α and IL-6 expression in response to imiquimod: apocynin 300 μM pre-treatment, SOD 300 U/mL (basal or imiquimod-stimulated), catalase 1000 U/mL
[6] = system: macrophage mitochondrial superoxide; test: Macrophage mitochondrial superoxide production; type: cell-based; settings: TLR7 activation with imiquimod
pERK1/2 = test: Cytosolic pERK1/2 activity, FRET biosensor; type: cell-based, mouse; settings: TLR7-dependent manner
PKC = test: Cytosolic PKC activity, FRET biosensor cytoCKAR; type: cell-based, mouse; settings: WT macrophages, imiquimod, within 5 min
[7] = system: influenza A virus strain HKx31 (H3N2); type: cell-based
TLR9 = type: cell-based, mouse; settings: CpG 10 μg/mL; apocynin
TLR3 = type: cell-based, mouse; settings: poly I:C 25 μg/mL; apocynin pre-treatment
TLR7 [8] = type: cell-based, mouse

With RCNA-NH2 the “inhibition of TLR7 agonist, imiquimod, response in vitro (IL-6 mRNA expression)” value (from here on “inhibition of TLR7 agonist, imiquimod”) (TLR7 [1]) was “none”.
For “Ac-Asp(OChol)-PEG4-PEG3-PEG4-gp91-NH2 [Cgp91ds-TAT]”, the airway inflammation (HKx31 influenza A virus) was “almost abolished”, the “decrease in lung influenza A viral burden” value (HKx31 influenza A virus) was ~10,000 fold and the “lung IFN-β mRNA levels compared to the control virus group” value (HKx31 influenza A virus) was “significantly increased”. For the same compound, the “reduction in airways inflammation” value (HKx31 influenza A virus) was roughly 40%, the “superoxide production in BALF inflammatory cells” value (HKx31 influenza A virus) was “almost abolished” and the “weight loss caused by influenza A virus at day 3” value (HKx31 influenza A virus) was “significantly reduced the weight loss”. The ROS scavenging properties (xanthine oxidase) was “not attributed to enhanced ROS scavenging properties”.
For `CC(=O)c1ccc2c(c1)Nc1ccccc1S2` [ML171], the “endosomal ROS production (OxyBURST) in response to influenza A virus” value (shortened to “endosomal ROS production (OxyBURST)”) [2] was “unaffected”.
In the case of `CC(C)C[C@H](NC(=O)[C@@H](NC(=O)[C@@H]1CCCN1C(=O)[C@@H](NC(=O)[C@H](CS)NC(=O)[C@H](CC(N)=O)NC(=O)[C@H](CS)NC(=O)[C@H](CCCNC(=N)N)NC(=O)[C@H](CC(C)C)NC(=O)[C@@H](N)CC(=O)O)C(C)C)C(C)C)C(N)=O` [C98i no TAT, DLRCNCVPVL-NH2] (H-DLRCNCVPVL-NH2), the cell viability [3] is reported as “no adverse effect”.
With RANC-NH2 the “inhibition of TLR7 agonist, imiquimod” value (TLR7 [1]) was “none”.
In the case of `CO/C1=C\C(C)=C\[C@@H](C)[C@@H](O)[C@@H](C)C/C(C)=C/C=C/[C@H](OC)[C@@H]([C@@H](C)[C@@H](O)[C@H](C)[C@@]2(O)C[C@@H](O)[C@H](C)[C@@H](C(C)C)O2)OC1=O` [bafilomycin A], the “NOX2 dependent ROS production in response to virus infection and to imiquimod” value [2] is reported as “abolished”, the “endosomal ROS production (OxyBURST)” value [2] is reported as “abolished the LysoTracker fluorescence and endosomal ROS production” and the “co-location (association) of NOX2 and p47phox caused by influenza virus” value (shortened to “co-location (association)”) (NOX2 oxidase) is reported as “reduced”.
With `COc1cccc(-c2cc(=O)c3ccccc3o2)c1N` [PD98059] the “endosomal ROS production (OxyBURST)” value [2] was “did not influence” and the “co-location (association)” value (NOX2 oxidase) was “did not influence”.
With `CC(C)C[C@H](NC(=O)[C@@H](NC(=O)[C@@H]1CCCN1C(=O)[C@@H](NC(=O)[C@H](CS)NC(=O)[C@H](CC(N)=O)NC(=O)[C@H](CS)NC(=O)[C@H](CCCNC(=N)N)NC(=O)[C@H](CC(C)C)NC(=O)[C@H](CC(=O)O)NC(=O)[C@H](CCCNC(=N)N)NC(=O)[C@H](CCCNC(=N)N)NC(=O)[C@H](CCCNC(=N)N)NC(=O)[C@H](CCC(N)=O)NC(=O)[C@H](CCCNC(=N)N)NC(=O)[C@H](CCCNC(=N)N)NC(=O)[C@H](CCCCN)NC(=O)[C@H](CCCCN)NC(=O)[C@H](CCCNC(=N)N)NC(=O)CNC(=O)[C@@H](N)Cc1ccc(O)cc1)C(C)C)C(C)C)C(N)=O` [C98i] (H-YGRKKRRQRRRDLRCNCVPVL-NH2) the cell viability [3] was “no adverse effect”.
For `CC(C)Cn1cnc2c(N)nc3ccccc3c21` [imiquimod], the “endosomal ROS production caused by the agonist” value [2] was “markedly increased endosomal ROS”, the “lung IFN-β, IL-1β, IL-6 and TNF-α” value (TLR7 responses; NOX2−/y mice) was “elevated levels” and the airway inflammation (TLR7 responses; WT and NOX2−/y mice) was “no discernible alterations”. The “endosomal ROS production caused by the agonist” value [4] was “markedly increased endosomal ROS”, the “IFN-β, IL-1β, TNF-α and IL-6 expression” value (TLR7 [5]; imiquimod alone, WT macrophages) was “significant elevation” and the “macrophage mitochondrial superoxide production” value [6] was “failed to increase”. The “cytosolic pERK1/2” value (pERK1/2) was “increased cytosolic pERK1/2” and the “cytosolic PKC activity” value (PKC) was “elevated cytosolic PKC activity”.
For RANA-NH2, the “inhibition of TLR7 agonist, imiquimod” value (TLR7 [1]) was “none”.
For `O=C(N/N=C/c1ccc(O)c(O)c1)c1cc2ccccc2cc1O` [Dynasore], the “catalase-dependent increase in cytokines” value (TLR7 [5]; WT macrophages treated with Dynasore (100 μM)) was “significantly suppressed”, the “influenza nucleoprotein (NP) fluorescence” value [7] was “almost abolished” and the “co-location (association)” value (NOX2 oxidase) was “reduced”.
In the case of `COc1cc(C(C)=O)ccc1O` [apocynin, 4′-Hydroxy-3′-methoxy acetophenone], the “increases in IFN-β, IL-1β, TNF-α and IL-6 triggered by CpG” value (TLR9) is reported as “unaffected”, the “IFN-β, IL-1β, TNF-α and IL-6 expression in response to imiquimod” value (TLR7 [5]; WT macrophages) is reported as “significantly enhanced” and the “IFN-β, IL-1β, TNF-α and IL-6 expression in response to poly I:C” value (TLR3) is reported as “suppressed”.
In the case of “RCNC—NH2 (RCNC-NH2; cysteine pairing not given here)”, the “inhibition of TLR7 agonist, imiquimod” value (TLR7 [1]) is reported as “none”.
For catalase, the “IFN-β and IL-1β expression” value (TLR7 [5]; 1 hr pulse catalase 1000 U/mL, after 24 h, WT macrophages) was “significant elevations”, the “IFN-β, IL-1β, TNF-α and IL-6 expression in response to imiquimod” value (TLR7 [5]; WT macrophages) was “significantly increased” and the “cytokine expression in cells expressing mutated TLR7” value (TLR7 [8]) was “little or no effect”. The “TLR7, TREML4 or NLRP3 expression” value (TLR7 [8]; catalase) was “no effect” and the “cytokine expression in cells with WT TLR7 or TLR7C445A” value (TLR7 [8]; catalase 1000 U/mL, transfected TLR7−/− macrophages) was “markedly increased”.
For “YGRKK-RRQRR-RCSTR-IRRQL-NH2 [Ugp91ds-TAT]”, the “decrease in lung influenza A viral burden” value (HKx31 influenza A virus) was ~10,000 fold, the “lung IFN-β mRNA levels compared to the control virus group” value (HKx31 influenza A virus) was “failed to do so” and the “superoxide production in BALF inflammatory cells” value (HKx31 influenza A virus) was “almost abolished”. For the same compound, the “weight loss caused by influenza A virus at day 3” value (HKx31 influenza A virus) was “significantly reduced the weight loss”.
For “YGRKKRRQRRRCLVPNDCRLV-NH2 [scrambled C98i]”, the “inhibition of TLR7 agonist (imiquimod)” value (TLR7 [1]; scrambled sequence with TAT) was “not able to inhibit”.
